The subject of one experiment is Herpes simplex virus. Nature of the experiment: In vitro plaque inhibition of Herpes simplex virus in BSC-1 or Hela cells (Table 3). Conditions: for inhibition at 3 µg/mL: read-out: PERCENT INHIBITION OF PLAQUES AT 3 mcg/ml; for inhibition at 12 µg/mL: read-out: PERCENT INHIBITION OF PLAQUES AT 12 mcg/ml; for inhibition at 25 µg/mL: read-out: PERCENT INHIBITION OF PLAQUES AT 25 mcg/ml; for PERCENT INHIBITION OF PLAQUES AT 50 mcg/ml / inhibition at 50 µg/mL: 50 mcg/ml; for inhibition at 50 µg/mL: read-out: PERCENT INHIBITION OF PLAQUES AT 50 mcg/ml; for inhibition at 6 µg/mL: read-out: PERCENT INHIBITION OF PLAQUES AT 6 mcg/ml; for inhibition at 100 µg/mL: 100 mcg/ml, read-out: PERCENT INHIBITION OF PLAQUES AT 100 mcg/ml. The format is cell-based. How it is done:
The compounds of this invention also have anti-viral activity in vitro against Herpes simplex virus.
African green monkey kidney cells (BSC-1) or Hela cells (5-3) were grown in 25 cc. Falcon flasks at 37° C. in medium 199 with 5 percent inactivated fetal bovine serum (FBS), penicillin (150 units 1 ml.) and streptomycin (150 mcg./ml.). When confluent monolayers were formed, the supernatant growth medium was removed and 0.3 ml. of an appropriate dilution of Herpes simplex virus was added to each flask. After adsorption for one hour at room temperature, the virus infected cell sheet was overlaid with a medium comprising one part of 1 percent Ionagar No. 2 and one part double strength medium 199 with FCS, (fetal calf serum) penicillin, and streptomycin and also containing drug at concentrations of 100, 50, 25, 12, 6 and 3 micrograms per milliliter (mcg./ml.). The flask containing no drug served as a control. The stock solutions of 2,3-dihydroimidazo[1,2-c]pyrimidine compounds were made up in dimethylsulfoxide dilution at a concentration of 10^4 mcg./ml. The flasks were incubated for 72 hours at 37° C. […] A solution of 10 percent formalin and 2 percent sodium acetate was added to each flask to inactivate the virus and fix the cell sheet to the surface of the flask. The virus plaques, irrespective of size, were counted after staining the surrounding cell areas with crystal violet. The plaque count was compared to the control count at each drug concentration. The activity of the test compound was expressed as percentage plaque inhibition. Table 3, which follows, embodies the results of these determinations. In the table, column 1 gives the name of the compound, columns 2 through 6, the percent inhibition of herpes simplex plaques at various mcg./ml. levels of drug.

The subject of experiment [1] is cutaneous Herpes simplex virus type 1. The experiment is described as follows: Topical treatment of cutaneous Herpes simplex virus type 1 lesions on guinea pig back, final score (Table 1). It is filed as in vivo, guinea pigs. The following applies: lesions scored 0 to 4+. How it is done: Three epilated areas on each guinea pig back were inoculated with approximately 1×10^5 plaque forming units of virus using a Sterneedle triggered 10 times for each area. Untreated guinea pigs so inoculated developed consistent rosette lesions in about 96 hours. All three areas on the back of each guinea pig were drug-treated and these compared with separate control animals which were treated with the particular vehicle employed for administering the drug. The positive control animals were treated with 0.5-1.0 percent phosphonoacetic acid (PAA) suspended in the same vehicle as the drug. Animals were inoculated on the morning of day 1 and treated on the afternoon of day 1. Two treatments per day were administered through day 5 for a total of 10 treatments. Hair was again epilated on day 5 and readings were begun then and taken daily through day 10. Lesions for each area were scored from 0 to 4+, which was a fully developed herpatic lesion with inflammation vesicles and pustules. An average score was then calculated for each drug for each day for the number of treated areas and control areas. Usually 3-6 guinea pigs were used per drug. After scoring, a final score or mean of means was calculated for drug-treated and for control areas. Table I which follows gives the results of determinations carried out as outlined above on compounds coming within the scope of this invention. In the table, column 1 gives the name of the drugs, column 2, the vehicle, column 3, the concentration; column 4, the number of animals used; and columns 5, the final score.

In experiment [2] the test system is Herpes simplex virus type I and Herpes simplex virus type II. Nature of the experiment: Intravaginal treatment of Herpes simplex virus type I and type II infection in guinea pigs, final score (Table 2). The format is in vivo. The following applies: 2.5 % conc., top score +16. How it is done:
A second in-vivo test against Herpes simplex virus type I and Herpes simplex virus type II was carried out as follows. Guinea pigs were inoculated intravaginally by swabing the vagina with an absorbent cotton swab containing 2×10^4 plaque forming units of the virus. Prior to the inoculation with the virus, the vagina was swabbed with physiological saline to remove potential virus inhibitors. Treatment was started four hours after inoculation and continued for four days. The drug in a suitable base was introduced into the vaginal area also with an absorbent cotton swab. Controls in which the vehicle only were swabbed were included. Beginning on day 5 after inoculation and continuing through day 10, each animal was examined and scored from 0 to 4+ for secretion, inflammation, vesiculation and necrosis, thus yielding a possible top score of +16 per guinea pig. In the table, column 1 gives the name of the compound; column 2, the vehicle; column 3, the concentration; column 4, the number of animals used; and columns 5, the final score.

Setting [3] is: 25 mcg/ml, 72 hours at 37° C., hydrochloride.
[4] abbreviates: 72 hours at 37° C., hydrochloride.
[5] abbreviates: 72 h, 3 mcg/ml, 72 hours at 37° C.
The mark [6] stands for this setting: 72 h, 12 mcg/ml, 72 hours at 37° C.
Setting [7] is: 72 h, 25 mcg/ml, 72 hours at 37° C.
Setting [8] is: 72 h, 6 mcg/ml, 72 hours at 37° C.

“And” between values parts separate entries of the source, which are not always exact repeats. Equal values may be shown once. Where a name gives a salt, the structure may show the parent alone. Read-outs that look alike come from different tables or passages of the source.

For `CC1=NC(Cl)=CC2=NC(c3ccccc3)CN12.Cl` (racemic) [2-phenyl-5-methyl-7-chloro-2,3-dihydroimidazo[1,2-c]pyrimidine hydrochloride], the “PERCENT INHIBITION OF PLAQUES AT 12 mcg/ml” value in the experiment on Herpes simplex virus (12 mcg/ml, 72 hours at 37° C., hydrochloride) is 50%. Also, in the experiment on Herpes simplex virus (setting [3]), the “PERCENT INHIBITION OF PLAQUES AT 25 mcg/ml” value was determined as 83%. In addition, the “PERCENT INHIBITION OF PLAQUES AT 50 mcg/ml” value in the experiment with Herpes simplex virus (setting [4]) came to 89%. For the same compound, in the experiment on Herpes simplex virus (setting [5]), the inhibition at 3 µg/mL stood at 0%. Also, the inhibition at 12 µg/mL in the experiment with Herpes simplex virus (setting [6]) came out at 41%. Also, the inhibition at 25 µg/mL in the experiment on Herpes simplex virus (setting [7]) turned out to be 87%. Also, the inhibition at 50 µg/mL in the experiment with Herpes simplex virus (72 h, 72 hours at 37° C.) was 100%.
`CC1=NC(Cl)=CC2=NCC(C)N12` (racemic) [dl-3,5-dimethyl-7-chloro-2,3-dihydroimidazo[1,2-c]pyrimidine hydrochloride]: the inhibition at 6 µg/mL in the experiment on Herpes simplex virus (setting [8]) came to 0%. Besides, the inhibition at 12 µg/mL in the experiment on Herpes simplex virus (setting [6]) amounted to 0%. For the same compound, the inhibition at 25 µg/mL in the experiment on Herpes simplex virus (setting [7]) stood at 12%. Also, the inhibition at 50 µg/mL with Herpes simplex virus (72 h, 72 hours at 37° C.) was determined as 74%.
As to `CC1=NC(Cl)=CC2=NCC(c3ccccc3)N12` (racemic) [dl-3-phenyl-5-methyl-7-chloro-2,3-dihydroimidazo[1,2-c]pyrimidine hydrochloride], the “PERCENT INHIBITION OF PLAQUES AT 25 mcg/ml” value with Herpes simplex virus (setting [3]) turned out to be 68%. Moreover, the “PERCENT INHIBITION OF PLAQUES AT 50 mcg/ml” value in the experiment with Herpes simplex virus (setting [4]) was determined as 95%. Moreover, in the experiment with Herpes simplex virus (setting [5]), the inhibition at 3 µg/mL came out at 0%. Besides, the inhibition at 6 µg/mL with Herpes simplex virus (setting [8]) worked out at 0%. Besides, the inhibition at 25 µg/mL in the experiment on Herpes simplex virus (setting [7]) worked out at 78%. Also, the inhibition at 50 µg/mL in the experiment with Herpes simplex virus (72 h, 72 hours at 37° C.) is 100%. In addition, in experiment [1] (vehicle D, 2.5 % conc.), the “Final Score” value came to 1.72.
`CSC1=NC(Cl)=CC2=NCC(c3ccccc3)N21` (racemic) [dl-3-phenyl-5-methylthio-7-chloro-2,3-dihydroimidazo[1,2-c]pyrimidine hydrochloride]: the inhibition at 3 µg/mL in the experiment on Herpes simplex virus (3 mcg/ml, high virus input (HV)) was determined as 23%; in the experiment on Herpes simplex virus (3 mcg/ml, low virus input (LV)), 57%. Also, the inhibition at 6 µg/mL in the experiment with Herpes simplex virus (6 mcg/ml, high virus input (HV)) amounted to 84%; in the experiment on Herpes simplex virus (6 mcg/ml, low virus input (LV)), 100%.
In the case of `NC1=NC(Cl)=CC2=NCCN12` [5-Amino-7-chloro-2,3-dihydroimidazo[1,2-c]pyrimidine hydrochloride], the inhibition at 3 µg/mL with Herpes simplex virus (setting [5]) came out at 0%. Further, the inhibition at 6 µg/mL in the experiment with Herpes simplex virus (setting [8]) stood at 0%. Moreover, in the experiment on Herpes simplex virus (setting [6]), the inhibition at 12 µg/mL came to 0%. In addition, the inhibition at 25 µg/mL with Herpes simplex virus (setting [7]) is 0%. Moreover, in the experiment on Herpes simplex virus (72 h, 72 hours at 37° C.), the inhibition at 50 µg/mL stood at 0% and the inhibition at 100 µg/mL is 11%.
On to `CCC1=NC(Cl)=CC2=NCCN21.Cl` [5-Ethyl-7-chloro-2,3-dihydroimidazo[1,2-c]pyrimidine hydrochloride], for which the “Final Score” value in experiment [2] (vehicle R) was 2.83; in experiment [1] (vehicle D, 1.0 % conc.), 1.09; in experiment [1] (vehicle D, 1.5 % conc.), 1.53; in experiment [1] (vehicle D, 2.5 % conc.) it was 1.60. In addition, in the experiment on Herpes simplex virus (setting [3]), the “PERCENT INHIBITION OF PLAQUES AT 25 mcg/ml” value came to 33%. For the same compound, the “PERCENT INHIBITION OF PLAQUES AT 50 mcg/ml” value in the experiment with Herpes simplex virus (setting [4]) was 76%. Besides, in the experiment with Herpes simplex virus (setting [5]), the inhibition at 3 µg/mL was 0%. In addition, in the experiment with Herpes simplex virus (setting [7]), the inhibition at 25 µg/mL is 50%. Further, the inhibition at 100 µg/mL in the experiment on Herpes simplex virus (72 h, 72 hours at 37° C.) amounted to 100%.
For `CSC1=NC(Cl)=CC2=NCCN21.Cl` [5-Methylthio-7-chloro-2,3-dihydroimidazo[1,2-c]pyrimidine hydrochloride], the “Final Score” value is on record as 3.81 in experiment [2] (vehicle D); “.92” in experiment [2] (vehicle R); 2.00 in experiment [1] (vehicle R, 2.5 % conc.). Further, the “PERCENT INHIBITION OF PLAQUES AT 6 mcg/ml” value with Herpes simplex virus (6 mcg/ml, 72 hours at 37° C., hydrochloride) worked out at 48%. In addition, the inhibition at 3 µg/mL in the experiment on Herpes simplex virus (setting [5]) came to 30%. Moreover, the inhibition at 6 µg/mL with Herpes simplex virus (setting [8]) was 49%. In addition, the inhibition at 12 µg/mL in the experiment on Herpes simplex virus (setting [6]) was 100%.
In the case of `CSC1=NC(Cl)=C(c2ccccc2)C2=NCCN12.Cl` [5-Methylthio-7-chloro-8-phenyl-2,3-dihydroimidazo[1,2-c]pyrimidine hydrochloride], in the experiment on Herpes simplex virus (3 mcg/ml, 72 hours at 37° C., hydrochloride), the “PERCENT INHIBITION OF PLAQUES AT 3 mcg/ml” value is 100% and 58%. In addition, the “Final Score” value in experiment [1] (vehicle D, 2.5 % conc.) worked out at 1.97.
As for `CNC1=CC2=NCCN2C(C)=N1` [5-methyl-7-methylamino-2,3-dihydroimidazo[1,2-c]pyrimidine dihydrochloride], the inhibition at 6 µg/mL in the experiment with Herpes simplex virus (setting [8]) worked out at 0%. In the experiment with Herpes simplex virus (setting [6]), the inhibition at 12 µg/mL stood at 0%. Also, the inhibition at 25 µg/mL with Herpes simplex virus (setting [7]) came out at 27%. In addition, in the experiment on Herpes simplex virus (72 h, 72 hours at 37° C.), the inhibition at 50 µg/mL stood at 18% and the inhibition at 100 µg/mL came to 30%.
For the compound `CC1=NC(N2CCCC2)=CC2=NCCN12` [5-methyl-7-pyrrolidino-2,3-dihydroimidazo[1,2-c]pyrimidine hydrochloride], the inhibition at 3 µg/mL in the experiment with Herpes simplex virus (setting [5]) amounted to 0%. For the same compound, the inhibition at 6 µg/mL in the experiment on Herpes simplex virus (setting [8]) was found to be 0%. Further, in the experiment on Herpes simplex virus (setting [6]), the inhibition at 12 µg/mL was determined as 0%. Also, the inhibition at 25 µg/mL in the experiment on Herpes simplex virus (setting [7]) is 0%. Besides, in the experiment on Herpes simplex virus (72 h, 72 hours at 37° C.), the inhibition at 50 µg/mL came to 0% and the inhibition at 100 µg/mL came out at 7%.
Turning to `CCCCCC1=NC(Cl)=CC2=NCCN21` [5-n-Amyl-7-chloro-2,3-dihydroimidazo[1,2-c]pyrimidine hydrochloride], in the experiment with Herpes simplex virus (setting [5]), the inhibition at 3 µg/mL came to 0%. Moreover, the inhibition at 6 µg/mL in the experiment with Herpes simplex virus (setting [8]) was found to be 0%. Further, the inhibition at 50 µg/mL with Herpes simplex virus (72 h, 72 hours at 37° C.) amounted to 100%.
Take `Cl.O=[N+]([O-])C1=C(NCCCl)N=CN2CCN=C12` [7-(β-chloroethylamino)-8-nitro-2,3-dihydroimidazo[1,2-c]pyrimidine hydrochloride]: the “Final Score” value in experiment [2] (vehicle R) was determined as 1.25. In addition, in the experiment on Herpes simplex virus (72 h), the inhibition at 6 µg/mL was found to be 33%, the inhibition at 12 µg/mL worked out at 41% and the inhibition at 25 µg/mL is 68%.
Turning to `CC1=NC(N(C)Cc2ccccc2)=CC2=NCCN12` [N,5-dimethyl-7-benzylamino-2,3-dihydroimidazo[1,2-c]pyrimidine hydrochloride], the inhibition at 6 µg/mL in the experiment on Herpes simplex virus (setting [8]) came to 0%. In the experiment with Herpes simplex virus (setting [6]), the inhibition at 12 µg/mL worked out at 0%. Besides, in the experiment with Herpes simplex virus (setting [7]), the inhibition at 25 µg/mL came to 0%. For the same compound, in the experiment with Herpes simplex virus (72 h, 72 hours at 37° C.), the inhibition at 50 µg/mL amounted to 0% and the inhibition at 100 µg/mL is 9%.

For the origin of these results see US4153695A, “Substituted 2,3-dihydro imidazo[1,2-c]pyrimidines” (priority 1978, dated 1979).
